Data set [1] in a line: Fraction of drug unbound to plasma proteins, rat. Format: in vitro ADME. Particulars: read-out: Fu (p).
Data set [2] is described as follows: Pharmacokinetics after intravenous or oral administration to dogs. The format is in vivo. Particulars: male, beagle, plasma, dog. The method, then: Example 32: Pharmacokinetics of Compounds After Intravenous or Oral Administration to Male Beagle Dogs
The study design (9 animals, fasted overnight and fed at 4 h post dosing) consists of administrating the drug [IV: 1 mg/kg via cephalic vein injection], [PO: 3 mg/kg and 10 mg/kg via oral gavage] and collecting samples at serial bleeding for plasma at 0.03, 0.08, 0.25, 0.5, 1, 2, 4, 8, 24, 48 and 72 hr. The IV and PO dosing solutions were prepared in 50 mM citrate buffer (pH 4.0) at 0.5 mg/mL, 1.5 mg/mL and 5 mg/mL, respectively. The blood collection was performed as follows: the animals were restrained manually, and approx. 0.5 mL blood/time point was collected from the cephalic vein into pre-cooled K2EDTA tubes. Blood samples were put on wet ice and centrifuged at 4° C. to obtain plasma within 15 minutes of sample collection. All samples were stored at approximately −70° C. until analysis.
Plasma Samples Preparation:
An aliquot of 30 μL sample was added to 100 MeCN containing 200 ng/mL IS (Dexamethasone). The mixture was vortexed for 10 min and centrifuged at 5,800 rpm for 10 min. An aliquot of 30 μL supernatant was added to 60 μL H2O and the mixture was vortexed for 5 min. An aliquot of 4 μL supernatant was injected for LC-MS/MS analysis.
The sample analysis was performed using UPLC-MS/MS-02 (Triple Quad 4000) under the following conditions: positive ion, ESI, MRM detection using dexamethasone as internal standard. HPLC conditions: mobile phase A: H2O-0.1% FA, mobile phase B: ACN-0.1% FA on ACQUITY UPLC HSS T3 (2.1×50 mm, 1.8 μm) column at 60° C.

The test system of data set [3] is brain proteins. The experiment in a line: Fraction of drug unbound to brain proteins, mouse. Format: in vitro ADME.
A short description of data set [4]: Mouse brain uptake assay, 0-24 h, 4 time points. Format: in vivo. The conditions noted are these: male, 3 mg/kg IV, 4 time points; for Kp / Kp uu: CD1, brain and plasma; for Kp / clearance / half-life / Kp uu: Mouse; for clearance / half-life: CD1, plasma; for half-life: read-out: t½ (converted). The method, then:
The study design (9 animals) consisted of administrating the drug (IV: 3 mg/kg (5 mL/kg) via tail vein injection) and collecting samples at terminal bleeding for plasma and brain at 0.083, 0.5 and 1 h. The blood collection was performed as follows: the animal was restrained manually and approximately 150 μL blood/time point was collected into a dipotassium EDTA tube via retro orbital puncture under anesthesia with isoflurane. The blood sample was put on ice and centrifuged to obtain a plasma sample (2000 g, 5 min under 4° C.) within 15 minutes. The brain collection was performed as follows: a mid-line incision was made in the animal's scalp and the skin was retracted. Using small bone cutters and rongeurs, the skull overlying the brain was removed. The brain was removed using a spatula and the brain rinsed with cold saline. The brain was placed in screw-top tubes, and the tubes were stored at −70° C. until analysis. The IV dosing solution was prepared in 50 mM citrate buffer (pH 4.0) at 0.6 mg/mL.
An aliquot of 30 μL sample was added to 150 μL MeCN containing 50 ng/mL IS (Dexamethasone). The mixture was vortexed for 5 min and centrifuged at 14,000 rpm for 5 min. An aliquot of 5 μL supernatant was injected for LC-MS/MS analysis.
An aliquot of 30 μL brain homogenate (brain:PBS=1:3, w/v) sample was added to 150 μL IS in ACN (Dexamethasone, 50 ng/mL). The mixture was vortexed for 5 min and centrifuged at 14,000 rpm for 5 min. An aliquot of 5 μL supernatant was injected for LC-MS/MS analysis.
The sample analysis was performed on LCMS/MS-003 (API4000, triple quadruple) under the following conditions: positive ion, ESI, MRM detection using dexamethasone as internal standard. HPLC conditions: mobile phase A: H2O (0.025% formic acid (FA) with 1 mM NH4OAc); mobile phase B: MeOH (0.025% FA with 1 mM NH4OAc) on Waters X-Bridge C18 (2.1×50 mm, 2.5 μm) column at 60° C.
A similar experiment was performed with 4 time points taken from 0-24 h.

Data set [5] concerns plasma proteins. Description: Fraction of drug unbound to plasma proteins, mouse. Format: in vitro ADME. The conditions noted are these: Mouse plasma proteins (Table 10).
[6] abbreviates: CD1, Mouse brain, read-out: AUClast (b).
The mark [7] stands for this setting: CD1, Mouse plasma, read-out: AUClast (p).

From patent US10759796B2, “CXCR4 inhibitors and uses thereof” (X4 Pharmaceuticals, Inc., priority 2016, dated 2020) come the findings set out here.

Each structure is given as a SMILES string. Where two headings read alike, the source gives them in different places.

On to `CN1CCN(c2cccc3nc([C@H]4CCC[C@@H](c5ncccc5Cl)N4)cn23)CC1` (racemic) [Compound I-149], for which, in data set [1], the fraction unbound was found to be 0.2.

The term Cmax denotes the highest concentration seen after dosing. In general, bioavailability refers to the share of a dose that reaches the circulation, judged against a reference dose that is usually intravenous. A high value points to good availability. A word on the AUC: it is the area under the concentration-time curve, a measure of exposure. In data set [2] (IV: 1 mg/kg), `CN1CCN(c2cccc3nc([C@H]4CCC[C@@H](c5ncccc5Cl)N4)cn23)CC1` (single isomer, unassigned) [Compound I-188] had a clearance of 19.8 mL/min/kg, a half-life of 27.3 h and an AUC of 722 ng·h/mL. The Vd in data set [2] (IV: 1 mg/kg, read-out: Vss) stood at 39 L/kg. In data set [2] (PO: 3 mg/kg), this molecule had a Cmax of 46.1 ng/mL, a bioavailability of 65%, a half-life of 27.3 h and an AUC of 1420 ng·h/mL. In data set [2] (PO: 10 mg/kg), this molecule showed a Cmax of 280 ng/mL, a bioavailability of 97.8%, a half-life of 23.2 h and an AUC of 7500 ng·h/mL. In addition, the “Fu (b)” value in data set [3] (Mouse brain proteins (Table 13)) was 5.4%. The fraction unbound in data set [1] was 0.308.

For the molecule `CN1CCN(c2cccc3nc([C@@H]4CCC[C@H](c5ncccc5Cl)N4)cn23)CC1` (single isomer, unassigned) [Compound I-189], the fraction unbound in data set [1] came to 0.248.

What is called Kp is the ratio of the level in a tissue or fluid to that in plasma or blood. Regarding `Cc1cccnc1[C@@H]1CCC[C@H](c2cn3c(-c4cccnc4)cccc3n2)N1C` [Compound I-6], in data set [4] (setting [6]), the AUC(0-t) was found to be 3170 ng·h/mL. Also, the AUC(0-t) in data set [4] (setting [7]) was determined as 1040 ng·h/mL. Besides, in data set [4], the Kp is 3.05, the clearance was 48.3 mL/min/kg and the half-life is 3.6 h.

Consider `Cc1cccnc1[C@@H]1CCC[C@H](c2nc3cccc(N4CCN(C)CC4)n3c2Cl)N1` [Compound I-146], for which, in data set [5], the “Fu (p) %” value stood at 5.3%. In data set [4] (setting [6]), the AUC(0-t) came to 34800 ng·h/mL. Further, the AUC(0-t) in data set [4] (setting [7]) came to 6590 ng·h/mL. In data set [4], the Kp was found to be 5.29, the Kp uu worked out at 0.6, the clearance was 7.22 mL/min/kg and the half-life is 6.02 h. Besides, the fraction unbound in data set [1] turned out to be 0.07.

Turning to `Cc1cccnc1[C@@H]1CCC[C@H](c2cn3c(N4CCN(C)CC4)cccc3n2)N1` [Compound I-187], the “Fu (p) %” value in data set [5] stood at 24.9%. Besides, in data set [4] (setting [6]), the AUC(0-t) stood at 1360 ng·h/mL. For the same molecule, the AUC(0-t) in data set [4] (setting [7]) is 1720 ng·h/mL. In data set [4], the Kp turned out to be 0.79, the Kp uu amounted to 0.22, the clearance was 28.7 mL/min/kg and the half-life was 4.72 h. Moreover, the “Fu (b) %” value in data set [3] (Mouse brain proteins (Table 10)) was 7.1%.
